# Earlier results, collected in patent publication US10753947B2, “Methods for screening voltage-gated proteins” (D.E. Shaw Research, LLC, priority 2012, dated 2020).
# Where two headings read alike, the source gives them in different places.
# What was measured:
# [1] = biological target: Kv1.3 (Homo sapiens, UniProt P22001); conditions: cited from earlier work
# [2] = test system: Nav; conditions: Table 4; read-out: IC50 Others: Nav; cited from earlier work
# [3] = biological target: Kv1.1 (Homo sapiens, UniProt Q09470); conditions: Table 4; read-out: IC50 Kv1.1; cited from earlier work
# Sequence of Kv1.1 (Q09470 whole entry): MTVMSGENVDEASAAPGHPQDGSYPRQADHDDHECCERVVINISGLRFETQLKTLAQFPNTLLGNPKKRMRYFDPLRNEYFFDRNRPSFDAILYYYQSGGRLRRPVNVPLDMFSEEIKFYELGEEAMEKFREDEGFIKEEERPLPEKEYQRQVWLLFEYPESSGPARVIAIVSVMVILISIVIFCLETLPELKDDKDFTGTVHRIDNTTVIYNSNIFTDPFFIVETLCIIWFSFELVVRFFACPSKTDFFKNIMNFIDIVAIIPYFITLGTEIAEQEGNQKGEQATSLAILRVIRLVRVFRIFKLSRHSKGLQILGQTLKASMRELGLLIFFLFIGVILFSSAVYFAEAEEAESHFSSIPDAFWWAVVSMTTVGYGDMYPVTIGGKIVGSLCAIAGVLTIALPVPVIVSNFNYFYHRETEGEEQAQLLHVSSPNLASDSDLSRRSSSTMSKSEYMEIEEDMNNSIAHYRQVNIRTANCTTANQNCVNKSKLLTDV
# [4] = biological target: Kv1.2 (Homo sapiens, UniProt P16389); conditions: Table 4; read-out: IC50 Kv1.2; cited from earlier work
# Sequence of Kv1.2 (P16389 whole entry): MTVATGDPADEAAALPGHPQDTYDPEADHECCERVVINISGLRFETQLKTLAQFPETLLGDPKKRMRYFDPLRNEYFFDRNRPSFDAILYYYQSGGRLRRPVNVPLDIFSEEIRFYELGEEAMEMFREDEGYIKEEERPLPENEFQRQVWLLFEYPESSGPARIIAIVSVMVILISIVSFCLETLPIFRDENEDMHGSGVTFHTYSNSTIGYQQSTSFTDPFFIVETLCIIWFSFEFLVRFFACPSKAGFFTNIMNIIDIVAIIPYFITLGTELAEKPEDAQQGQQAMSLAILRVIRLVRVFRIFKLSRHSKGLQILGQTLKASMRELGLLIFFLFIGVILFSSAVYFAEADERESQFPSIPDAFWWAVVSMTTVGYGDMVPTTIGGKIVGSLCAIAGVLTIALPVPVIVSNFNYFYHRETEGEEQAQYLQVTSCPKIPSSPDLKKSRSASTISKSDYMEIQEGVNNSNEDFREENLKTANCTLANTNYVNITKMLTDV
# [5] = biological target: KCa3.1 (Homo sapiens, UniProt O15554); conditions: Table 4; cited from earlier work
# Sequence of KCa3.1 (O15554 whole entry): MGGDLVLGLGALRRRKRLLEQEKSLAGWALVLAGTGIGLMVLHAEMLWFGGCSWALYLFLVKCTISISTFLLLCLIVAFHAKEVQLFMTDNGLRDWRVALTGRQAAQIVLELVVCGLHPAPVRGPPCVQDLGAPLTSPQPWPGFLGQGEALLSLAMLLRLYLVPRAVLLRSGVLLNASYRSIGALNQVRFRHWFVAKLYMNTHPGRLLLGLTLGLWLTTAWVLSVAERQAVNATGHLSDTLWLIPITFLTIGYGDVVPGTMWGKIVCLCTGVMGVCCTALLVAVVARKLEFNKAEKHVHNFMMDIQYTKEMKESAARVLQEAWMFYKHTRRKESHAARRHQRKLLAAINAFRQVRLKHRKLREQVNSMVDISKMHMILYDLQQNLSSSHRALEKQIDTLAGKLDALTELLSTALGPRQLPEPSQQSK
# [6] = biological target: Kv1.5 (Homo sapiens, UniProt P22460); conditions: Table 4; cited from earlier work
# Sequence of Kv1.5 (P22460 whole entry): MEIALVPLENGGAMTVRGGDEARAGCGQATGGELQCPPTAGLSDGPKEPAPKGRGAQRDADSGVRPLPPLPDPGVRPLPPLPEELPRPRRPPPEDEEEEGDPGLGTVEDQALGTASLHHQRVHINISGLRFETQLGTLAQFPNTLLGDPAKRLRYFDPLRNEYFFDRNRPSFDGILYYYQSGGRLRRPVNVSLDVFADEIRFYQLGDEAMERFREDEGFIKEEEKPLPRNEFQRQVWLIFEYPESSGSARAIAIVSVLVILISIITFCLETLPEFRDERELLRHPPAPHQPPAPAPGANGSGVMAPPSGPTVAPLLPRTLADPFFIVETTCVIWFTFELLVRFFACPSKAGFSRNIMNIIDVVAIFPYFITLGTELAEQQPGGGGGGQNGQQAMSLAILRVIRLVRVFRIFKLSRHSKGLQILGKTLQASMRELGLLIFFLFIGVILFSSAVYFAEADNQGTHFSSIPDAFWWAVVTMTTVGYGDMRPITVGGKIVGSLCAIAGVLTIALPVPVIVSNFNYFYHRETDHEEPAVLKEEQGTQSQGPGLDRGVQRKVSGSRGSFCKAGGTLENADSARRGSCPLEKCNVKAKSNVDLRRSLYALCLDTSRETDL
# [7] = biological target: Kv1.4 (Homo sapiens, UniProt P22459); conditions: Table 4; read-out: IC50 Others: Kv1.4; cited from earlier work
# Sequence of Kv1.4 (P22459 whole entry): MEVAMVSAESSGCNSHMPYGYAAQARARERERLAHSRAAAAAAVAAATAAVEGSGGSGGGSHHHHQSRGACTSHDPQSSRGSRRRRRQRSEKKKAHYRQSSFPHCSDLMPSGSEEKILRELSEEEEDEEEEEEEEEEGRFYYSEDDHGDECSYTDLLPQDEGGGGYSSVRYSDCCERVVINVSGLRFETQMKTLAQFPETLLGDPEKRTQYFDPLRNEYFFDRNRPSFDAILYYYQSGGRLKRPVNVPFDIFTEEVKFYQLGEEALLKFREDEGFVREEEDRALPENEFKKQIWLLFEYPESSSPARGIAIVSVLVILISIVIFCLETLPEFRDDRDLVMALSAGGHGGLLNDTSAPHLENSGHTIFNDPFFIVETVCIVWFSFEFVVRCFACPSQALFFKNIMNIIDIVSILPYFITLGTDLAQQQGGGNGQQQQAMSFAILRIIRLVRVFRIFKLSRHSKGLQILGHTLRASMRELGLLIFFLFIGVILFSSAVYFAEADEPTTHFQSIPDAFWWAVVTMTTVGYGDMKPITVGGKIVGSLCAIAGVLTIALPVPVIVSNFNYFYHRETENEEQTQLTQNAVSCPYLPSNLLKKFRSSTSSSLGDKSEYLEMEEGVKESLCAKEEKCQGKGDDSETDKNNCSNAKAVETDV
# [8] = biological target: T1, Kv3.2 (Homo sapiens, UniProt Q96PR1); conditions: Table 4; read-out: IC50 Others: Kv3.2; cited from earlier work
# T1 sequence (Q96PR1 1-638): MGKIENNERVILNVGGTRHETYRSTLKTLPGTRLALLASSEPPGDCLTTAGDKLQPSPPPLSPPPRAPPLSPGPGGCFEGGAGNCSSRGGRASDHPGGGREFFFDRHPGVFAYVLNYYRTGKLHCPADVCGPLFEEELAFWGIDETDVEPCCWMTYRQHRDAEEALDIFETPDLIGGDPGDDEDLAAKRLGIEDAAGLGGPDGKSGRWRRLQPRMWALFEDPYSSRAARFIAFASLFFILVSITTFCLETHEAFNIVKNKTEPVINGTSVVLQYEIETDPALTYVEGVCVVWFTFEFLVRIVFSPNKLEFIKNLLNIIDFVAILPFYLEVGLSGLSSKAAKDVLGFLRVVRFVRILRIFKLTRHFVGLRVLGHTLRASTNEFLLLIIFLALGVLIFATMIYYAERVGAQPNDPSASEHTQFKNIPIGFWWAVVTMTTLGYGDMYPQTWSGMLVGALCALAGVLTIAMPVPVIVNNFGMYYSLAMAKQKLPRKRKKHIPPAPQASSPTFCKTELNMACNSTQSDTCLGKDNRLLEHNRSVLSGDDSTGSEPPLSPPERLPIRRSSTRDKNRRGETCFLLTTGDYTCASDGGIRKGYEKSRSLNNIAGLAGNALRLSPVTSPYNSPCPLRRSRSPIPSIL
# [9] = Table 2, modulating Kv1.3 ion conductance, read-out: IC50
# Sequence of Kv1.3 (P22001 whole entry): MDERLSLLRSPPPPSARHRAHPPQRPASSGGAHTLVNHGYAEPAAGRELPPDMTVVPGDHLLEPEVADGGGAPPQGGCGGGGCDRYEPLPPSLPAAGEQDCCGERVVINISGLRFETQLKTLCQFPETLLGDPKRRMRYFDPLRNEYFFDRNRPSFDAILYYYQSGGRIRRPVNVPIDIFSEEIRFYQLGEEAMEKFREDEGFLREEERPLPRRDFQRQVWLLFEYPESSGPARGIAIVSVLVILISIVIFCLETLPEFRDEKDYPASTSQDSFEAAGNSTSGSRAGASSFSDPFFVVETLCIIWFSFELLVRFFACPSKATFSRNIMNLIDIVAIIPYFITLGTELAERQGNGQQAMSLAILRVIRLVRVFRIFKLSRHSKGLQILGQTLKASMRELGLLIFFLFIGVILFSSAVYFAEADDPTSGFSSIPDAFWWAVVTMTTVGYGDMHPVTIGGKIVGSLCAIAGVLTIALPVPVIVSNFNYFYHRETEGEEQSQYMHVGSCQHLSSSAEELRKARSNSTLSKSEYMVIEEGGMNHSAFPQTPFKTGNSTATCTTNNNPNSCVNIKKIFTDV
SMILES,"IC50 [1, 9]","IC50 ([1]; Table 4, read-out: IC50 Kv1.3)",IC50 [2],IC50 [3],IC50 [4],IC50 [5],IC50 [6],IC50 [7],IC50 [8]
CCCCC/N=c1\ccn(Cc2ccccc2)c2ccccc12 [CP-339818],0.15 µM,0.23 µM,0.01 µM,62 µM,14 µM,> 500 µM,19 µM,–,–
COc1ccc(CCCN2CCC(COC(c3ccccc3)c3ccccc3)CC2)cc1 [UK-78282],0.2 µM,–,–,22 µM,2.9 µM,> 30 µM,0.07 µM,0.3 µM,127 µM
